# Data: US20020025918A1, “Methods of using helical peptides in plants” (priority 1987, published 2002)
# Residues, ends and D or L forms follow the SMILES beside them.
# Assays:
# S. auerus = assay: Synergy of lytic peptide with antibiotics; conditions: Manitou-1 0 μM
# E. coli [1] = assay: Synergy of lytic peptide with antibiotics; conditions: Manitou-1 0 μM
# EL-4 lymphoma cells = assay: EL-4 cell killing, trypan blue exclusion; conditions: one hour, 37° C.
# E. coli [2] = assay: MBC and MIC susceptibility test; assay type: cell-based; conditions: for MBC: Table III
# S. aureus = assay: MBC and MIC susceptibility test; assay type: cell-based
# P. aeruginosa = assay: MBC and MIC susceptibility test; assay type: cell-based; conditions: for MBC: Table III, P. aeuriginosa (−)
structure (smiles),measurement,setting,value
"CN(C)[C@@H]1C(O)=C(C(N)=O)C(=O)[C@@]2(O)C(O)=C3C(=O)c4c(O)cccc4[C@@](C)(O)[C@H]3C[C@@H]12 [Tetracycline, reference compound]",% Cell Death In S. auerus,S. auerus; antibiotic 0.5 μM alone,0%
same,% Cell Death In S. auerus,S. auerus; antibiotic 5.0 μM alone,35%
same,% Cell Death In E. coli,E. coli [1]; antibiotic 0.5 μM alone,0%
same,% Cell Death In E. coli,E. coli [1]; antibiotic 5.0 μM alone,58%
CC[C@H](C)[C@H](NC(=O)CNC(=O)[C@H](CCC(N)=O)NC(=O)[C@H](CCCCN)NC(=O)[C@@H](NC(=O)[C@H](CCC(N)=O)NC(=O)[C@H](CCCCN)NC(=O)CNC(=O)[C@@H](NC(=O)[C@H](CCCNC(=N)N)NC(=O)[C@H](CC(=O)O)NC(=O)[C@@H](NC(=O)[C@H](CCCNC(=N)N)NC(=O)[C@H](CCCNC(=N)N)NC(=O)[C@H](Cc1ccccc1)NC(=O)[C@H](CC(C)C)NC(=O)[C@H](CCCNC(=N)N)NC(=O)[C@H](Cc1c[nH]c2ccccc12)NC(=O)[C@H](CCCNC(=N)N)NC(=O)[C@@H]1CCCN1C(=O)[C@@H](N)CCSC)[C@@H](C)CC)C(C)C)[C@@H](C)CC)C(=O)N[C@@H](CC(C)C)C(=O)N[C@@H](CCCNC(=N)N)C(=O)N[C@@H](C)C(=O)NCC(=O)N1CCC[C@H]1C(=O)N[C@@H](C)C(=O)N[C@H](C(=O)N[C@@H](C)C(=O)N[C@@H](CC(C)C)C(=O)N[C@H](C(=O)NCC(=O)N[C@@H](CC(=O)O)C(=O)N[C@@H](C)C(=O)N[C@@H](CCCNC(=N)N)C(=O)N[C@@H](C)C(=O)N[C@H](C(=O)NCC(N)=O)C(C)C)C(C)C)[C@@H](C)CC [Shiva-1] (H-MPRWRLFRRIDRVGKQIKQGILRAGPAIALVGDARAVG-NH2; N-terminus and C-terminus assumed),% EL-4 Cells Killed,EL-4 lymphoma cells; 10 μM peptide,2%
same,% EL-4 Cells Killed,EL-4 lymphoma cells; 25 μM peptide,18%
same,% EL-4 Cells Killed,EL-4 lymphoma cells; 50 μM peptide,42%
same,% EL-4 Cells Killed,EL-4 lymphoma cells; 100 μM peptide,87%
CC(C)C[C@H](NC(=O)[C@H](CCCCN)NC(=O)[C@H](C)NC(=O)[C@H](CC(C)C)NC(=O)[C@H](CCCCN)NC(=O)[C@H](CCCCN)NC(=O)[C@H](C)NC(=O)[C@H](CC(C)C)NC(=O)[C@H](CCCCN)NC(=O)[C@H](C)NC(=O)[C@H](CC(C)C)NC(=O)[C@H](CCCCN)NC(=O)[C@H](CCCCN)NC(=O)[C@@H](N)CC(C)C)C(=O)N[C@@H](C)C(=O)N[C@@H](CCCCN)C(=O)N[C@@H](CCCCN)C(=O)N[C@@H](CC(C)C)C(=O)N[C@@H](C)C(=O)N[C@@H](CCCCN)C(=O)N[C@@H](CCCCN)C(N)=O [Anubis-8],antibacterial result of treatment (Table I; MBC),E. coli [2],16 µM
same,antibacterial result of treatment (Table I; MBC),S. aureus; S. auerus (+),8 µM
same,antibacterial result of treatment (Table I; MBC),P. aeruginosa; P. aeruginosa (−),16 µM
CC(C)C[C@H](NC(=O)[C@H](C)NC(=O)[C@H](CCCCN)NC(=O)[C@H](CCCCN)NC(=O)[C@H](CC(C)C)NC(=O)[C@H](C)NC(=O)[C@H](CCCCN)NC(=O)[C@H](CCCCN)NC(=O)[C@H](CC(C)C)NC(=O)[C@H](CCCCN)NC(=O)[C@H](CCCCN)NC(=O)[C@H](CC(C)C)NC(=O)[C@H](C)NC(=O)[C@H](CCCCN)NC(=O)[C@H](CCCCN)NC(=O)[C@H](CC(C)C)NC(=O)[C@H](C)NC(=O)[C@H](CCCCN)NC(=O)[C@H](CC(C)C)NC(=O)[C@H](C)NC(=O)[C@H](CC(C)C)NC(=O)[C@H](C)NC(=O)[C@@H](N)Cc1ccccc1)C(N)=O [Hecate-1] (H-FALALKALKKALKKLKKALKKAL-NH2),MBC,E. coli [2],4.0 µM
same,MBC,P. aeruginosa,10.0 µM
CC(C)C[C@H](NC(=O)[C@H](C)NC(=O)[C@H](CC(C)C)NC(=O)[C@H](C)NC(=O)[C@H](CC(C)C)NC(=O)[C@H](CCCCN)NC(=O)[C@H](C)NC(=O)[C@H](CC(C)C)NC(=O)[C@H](CCCCN)NC(=O)[C@H](CCCCN)NC(=O)[C@H](C)NC(=O)[C@H](CC(C)C)NC(=O)[C@H](CCCCN)NC(=O)[C@H](CCCCN)NC(=O)[C@H](CC(C)C)NC(=O)[C@H](CCCCN)NC(=O)[C@H](CCCCN)NC(=O)[C@H](C)NC(=O)[C@H](CC(C)C)NC(=O)[C@H](CCCCN)NC(=O)[C@H](CCCCN)NC(=O)[C@H](C)NC(=O)[C@@H](N)Cc1ccccc1)C(N)=O [Shiva-10],MBC,E. coli [2],1.0 µM
same,MBC,P. aeruginosa,2.0 µM
CC[C@H](C)[C@H](NC(=O)CNC(=O)[C@H](CC(N)=O)NC(=O)[C@H](CCCNC(=N)N)NC(=O)[C@@H](NC(=O)[C@H](CC(N)=O)NC(=O)[C@H](CCCNC(=N)N)NC(=O)CNC(=O)[C@@H](NC(=O)[C@H](CCCCN)NC(=O)[C@H](CCC(=O)O)NC(=O)[C@@H](NC(=O)[C@H](CCCCN)NC(=O)[C@H](CCCCN)NC(=O)[C@H](Cc1ccccc1)NC(=O)[C@@H](NC(=O)[C@H](CCCCN)NC(=O)[C@H](Cc1c[nH]c2ccccc12)NC(=O)[C@H](CCCCN)NC(=O)[C@@H]1CCCN1C(=O)[C@@H](N)CCSC)C(C)C)[C@@H](C)CC)C(C)C)[C@@H](C)CC)C(=O)N[C@H](C(=O)N[C@@H](CCCCN)C(=O)N[C@@H](C)C(=O)NCC(=O)N1CCC[C@H]1C(=O)N[C@@H](C)C(=O)N[C@H](C(=O)N[C@@H](C)C(=O)N[C@H](C(=O)N[C@@H](CC(C)C)C(=O)NCC(=O)N[C@@H](CCC(=O)O)C(=O)N[C@@H](C)C(=O)N[C@@H](CCCCN)C(=O)N[C@@H](C)C(=O)N[C@@H](CC(C)C)C(=O)NCC(N)=O)C(C)C)[C@@H](C)CC)C(C)C [SB-37] (H-MPKWKVFKKIEKVGRNIRNGIVKAGPAIAVLGEAKALG-NH2),MBC,E. coli [2],2.0 µM
same,MBC,"S. aureus; Table III, S. aureus (+)",64 µM
same,MBC,P. aeruginosa,3.5 µM
"[H]/N=C(/N)N[C@H]1[C@H](O)[C@@H](O)[C@H](O[C@@H]2O[C@@H](C)[C@](O)(C=O)[C@H]2O[C@@H]2O[C@@H](CO)[C@H](O)[C@@H](O)[C@@H]2NC)[C@@H](N/C(N)=N\[H])[C@@H]1O [Streptomycin, reference compound]",% Cell Death In S. auerus,S. auerus; antibiotic 0.5 μM alone,0%
same,% Cell Death In S. auerus,S. auerus; antibiotic 5.0 μM alone,87%
same,% Cell Death In E. coli,E. coli [1]; antibiotic 0.5 μM alone,0%
same,% Cell Death In E. coli,E. coli [1]; antibiotic 5.0 μM alone,87%
